Measured values reported in PubChem BioAssay (NCI).
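The compound was tested at five concentrations on cells cultured in 96-well plates, with a 48-hour exposure period. Abbreviation: GI50, concentration required for 50% inhibition of growth. Definition used: TGI = concentration required for complete inhibition of growth.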

Tests used:
Test in all cases: growth of human tumour cells (NCI), 48 h
[1] = system: T-47D breast
[2] = system: UACC-257 melanoma
[3] = system: HS 578T breast
[4] = system: NCI-H460 lung
[5] = system: CAKI-1 renal
[6] = system: MDA-MB-231 breast
[7] = system: HCC-2998 colon
[8] = system: A549 NSCLC
[9] = system: M14 melanoma
[10] = system: SF-295 CNS
[11] = system: SK-MEL-2 melanoma
[12] = system: SNB-19 CNS
[13] = system: MALME-3M melanoma
[14] = system: U251 CNS
[15] = system: HOP-92 NSCLC
[16] = system: HL-60(TB) leukemia
[17] = system: LOX IMVI melanoma
[18] = system: TK-10 renal
[19] = system: BT-549 breast
[20] = system: IGROV1 ovarian
[21] = system: SK-MEL-28 melanoma
[22] = system: EKVX NSCLC
[23] = system: OVCAR-4 ovarian
[24] = system: HOP-62 NSCLC
[25] = system: K-562 leukemia
[26] = system: UO-31 renal
[27] = system: 786-0 renal
[28] = system: SNB-75 CNS
[29] = system: MDA-MB-435
[30] = system: CCRF-CEM leukemia
[31] = system: NCI-H23 lung
[32] = system: PC-3 prostate
[33] = system: ACHN renal
[34] = system: DU-145 prostate
[35] = system: HT29 colon
[36] = system: A498 renal
[37] = system: SN12C renal
[38] = system: HCT-15 colon
[39] = system: RXF 393 renal
[40] = system: NCI/ADR-RES ovarian
[41] = system: SK-MEL-5 melanoma
[42] = system: UACC-62 melanoma
[43] = system: OVCAR-5 ovarian
[44] = system: SF-539 CNS
[45] = system: SK-OV-3 ovarian
[46] = system: RPMI-8226 leukemia
[47] = system: MOLT-4 leukemia
[48] = system: NCI-H226 lung
[49] = system: SR leukemia
[50] = system: OVCAR-8 ovarian
[51] = system: SW-620 colon
[52] = system: COLO 205 colon
[53] = system: HCT-116 colon
[54] = system: KM12 colon
[55] = system: MCF7 breast
[56] = system: SF-268 CNS

Question: With `Oc1ccccc1-c1nnc(SCc2ccc(O)c3ncccc23)n1-c1ccccc1` as the compound, how does the GI50 [1] read?
Answer: 344 nM

Question: And the TGI [1]?
Answer: > 100000 nM

Question: And the GI50 [2]?
Answer: 514 nM

Question: What about the TGI [2] of the same compound?
Answer: > 26800 nM

Question: And the GI50 [3]?
Answer: 357 nM

Question: What about the TGI [3] of the same compound?
Answer: > 100000 nM

Question: And the GI50 [4]?
Answer: 372 nM

Question: What about the TGI [4] of the same compound?
Answer: > 100000 nM

Question: And the GI50 [5]?
Answer: 382 nM

Question: What about the TGI [5] of the same compound?
Answer: 24600 nM

Question: What about the GI50 [6] of the same compound?
Answer: 432 nM

Question: What about the TGI [6] of the same compound?
Answer: 24200 nM

Question: What about the GI50 [7] of the same compound?
Answer: 552 nM

Question: And the TGI [7]?
Answer: > 95200 nM

Question: What about the GI50 [8] of the same compound?
Answer: 441 nM

Question: And the TGI [8]?
Answer: > 100000 nM

Question: And the GI50 [9]?
Answer: 418 nM

Question: What about the GI50 [10] of the same compound?
Answer: 347 nM

Question: And the TGI [10]?
Answer: > 53800 nM

Question: And the GI50 [11]?
Answer: 361 nM

Question: What about the GI50 [12] of the same compound?
Answer: 378 nM

Question: What about the TGI [12] of the same compound?
Answer: > 100000 nM

Question: And the GI50 [13]?
Answer: 806 nM

Question: What about the TGI [13] of the same compound?
Answer: 7890 nM

Question: What about the GI50 [14] of the same compound?
Answer: 363 nM

Question: What about the TGI [14] of the same compound?
Answer: > 100000 nM

Question: What about the GI50 [15] of the same compound?
Answer: 106 nM

Question: What about the TGI [15] of the same compound?
Answer: 654 nM

Question: And the GI50 [16]?
Answer: 326 nM

Question: What about the TGI [16] of the same compound?
Answer: 2380 nM

Question: What about the GI50 [17] of the same compound?
Answer: 350 nM

Question: What about the TGI [17] of the same compound?
Answer: > 35300 nM

Question: And the GI50 [18]?
Answer: 417 nM

Question: What about the TGI [18] of the same compound?
Answer: > 100000 nM

Question: And the GI50 [19]?
Answer: 494 nM

Question: And the TGI [19]?
Answer: > 100000 nM

Question: What about the GI50 [20] of the same compound?
Answer: 406 nM

Question: And the TGI [20]?
Answer: > 100000 nM

Question: And the GI50 [21]?
Answer: 543 nM

Question: What about the TGI [21] of the same compound?
Answer: > 100000 nM

Question: And the GI50 [22]?
Answer: 437 nM

Question: What about the TGI [22] of the same compound?
Answer: 9810 nM

Question: What about the GI50 [23] of the same compound?
Answer: 641 nM

Question: What about the TGI [23] of the same compound?
Answer: > 100000 nM

Question: What about the GI50 [24] of the same compound?
Answer: 377 nM

Question: And the TGI [24]?
Answer: > 21000 nM

Question: What about the GI50 [25] of the same compound?
Answer: 270 nM

Question: And the TGI [25]?
Answer: > 100000 nM

Question: What about the GI50 [26] of the same compound?
Answer: 291 nM

Question: What about the TGI [26] of the same compound?
Answer: 2480 nM

Question: And the GI50 [27]?
Answer: 513 nM

Question: What about the TGI [27] of the same compound?
Answer: 12000 nM

Question: What about the GI50 [28] of the same compound?
Answer: 416 nM

Question: And the TGI [28]?
Answer: > 58800 nM

Question: What about the GI50 [29] of the same compound?
Answer: 402 nM

Question: What about the TGI [29] of the same compound?
Answer: > 100000 nM

Question: What about the GI50 [30] of the same compound?
Answer: 379 nM

Question: And the TGI [30]?
Answer: > 100000 nM

Question: And the GI50 [31]?
Answer: 412 nM

Question: What about the TGI [31] of the same compound?
Answer: > 100000 nM

Question: What about the GI50 [32] of the same compound?
Answer: 488 nM

Question: What about the TGI [32] of the same compound?
Answer: > 100000 nM

Question: What about the GI50 [33] of the same compound?
Answer: 331 nM

Question: What about the TGI [33] of the same compound?
Answer: 26300 nM

Question: What about the GI50 [34] of the same compound?
Answer: 498 nM

Question: And the TGI [34]?
Answer: > 90800 nM

Question: What about the GI50 [35] of the same compound?
Answer: 3620 nM

Question: And the TGI [35]?
Answer: > 51400 nM

Question: What about the GI50 [36] of the same compound?
Answer: 1850 nM

Question: And the TGI [36]?
Answer: 7440 nM

Question: What about the GI50 [37] of the same compound?
Answer: 347 nM

Question: What about the TGI [37] of the same compound?
Answer: 52700 nM

Question: What about the GI50 [38] of the same compound?
Answer: 323 nM

Question: And the TGI [38]?
Answer: > 100000 nM

Question: What about the GI50 [39] of the same compound?
Answer: 666 nM

Question: And the TGI [39]?
Answer: 80200 nM

Question: What about the GI50 [40] of the same compound?
Answer: 279 nM

Question: What about the TGI [40] of the same compound?
Answer: > 100000 nM

Question: What about the GI50 [41] of the same compound?
Answer: 349 nM

Question: What about the TGI [41] of the same compound?
Answer: 1530 nM

Question: And the GI50 [42]?
Answer: 426 nM

Question: And the TGI [42]?
Answer: 2540 nM

Question: And the GI50 [43]?
Answer: 2110 nM

Question: And the TGI [43]?
Answer: > 100000 nM

Question: What about the GI50 [44] of the same compound?
Answer: 438 nM

Question: What about the TGI [44] of the same compound?
Answer: 13700 nM

Question: What about the GI50 [45] of the same compound?
Answer: 376 nM

Question: And the TGI [45]?
Answer: > 19700 nM

Question: What about the GI50 [46] of the same compound?
Answer: 399 nM

Question: What about the TGI [46] of the same compound?
Answer: > 100000 nM

Question: And the GI50 [47]?
Answer: 434 nM

Question: And the TGI [47]?
Answer: > 100000 nM

Question: And the GI50 [48]?
Answer: 1770 nM

Question: What about the TGI [48] of the same compound?
Answer: > 100000 nM

Question: And the GI50 [49]?
Answer: 345 nM

Question: And the TGI [49]?
Answer: > 100000 nM

Question: And the GI50 [50]?
Answer: 375 nM

Question: What about the TGI [50] of the same compound?
Answer: > 41500 nM

Question: What about the GI50 [51] of the same compound?
Answer: 429 nM

Question: And the TGI [51]?
Answer: > 100000 nM

Question: And the GI50 [52]?
Answer: 4010 nM

Question: What about the TGI [52] of the same compound?
Answer: 32000 nM

Question: And the GI50 [53]?
Answer: 325 nM

Question: What about the TGI [53] of the same compound?
Answer: > 100000 nM

Question: What about the GI50 [54] of the same compound?
Answer: 485 nM

Question: What about the TGI [54] of the same compound?
Answer: > 75300 nM

Question: And the GI50 [55]?
Answer: 310 nM

Question: What about the TGI [55] of the same compound?
Answer: > 100000 nM

Question: And the GI50 [56]?
Answer: 475 nM

Question: And the TGI [56]?
Answer: > 100000 nM
